In patent US12077503B2, “Substituted cyclic amides and their use as herbicides” (FMC CORPORATION, priority 2015, dated 2024):

Columns and labels:
Assay in all cases: Test C preemergence
Assay type in all cases: in vivo
[1] = test system: corn (Zea mays); conditions: for Plant response rating, Corn: scale 0 to 100, 0 no effect, 100 complete control
Method in brief: (§1)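 Assessment: visual, 13–15 d after treatment, 0 (no effect) to 100 (complete control) relative to controls. Treatment: preemergence to seeds in loam-sand soil, or postemergence to 1- to 4-leaf plants in peat-based medium. Formulation: non-phytotoxic solvent mixture with surfactant.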

[2] = test system: pigweed (Amaranthus retroflexus); conditions: for Plant response rating, Pigweed: scale 0 to 100, 0 no effect, 100 complete control
Method in brief: as §1

[3] = test system: crabgrass, large (large crabgrass, Digitaria sanguinalis); conditions: for Plant response rating, Crabgrass, Large: scale 0 to 100, 0 no effect, 100 complete control
Method in brief: as §1

[4] = test system: ragweed (common ragweed, Ambrosia elatior); conditions: for Plant response rating, Ragweed: scale 0 to 100, 0 no effect, 100 complete control
Method in brief: as §1

[5] = test system: barnyardgrass (Echinochloa crus-galli); conditions: for Plant response rating, Barnyardgrass: scale 0 to 100, 0 no effect, 100 complete control
Method in brief: as §1

[6] = test system: morningglory (Ipomoea coccinea); conditions: for Plant response rating, Morningglory: scale 0 to 100, 0 no effect, 100 complete control
Method in brief: as §1

[7] = test system: velvetleaf (Abutilon theophrasti); conditions: for Plant response rating, Velvetleaf: scale 0 to 100, 0 no effect, 100 complete control
Method in brief: as §1

[8] = test system: wheat (winter wheat, Triticum aestivum); conditions: for Plant response rating, Wheat: scale 0 to 100, 0 no effect, 100 complete control
Method in brief: as §1

[9] = test system: Galium (catchweed bedstraw, Galium aparine); conditions: for Plant response rating, Galium: scale 0 to 100, 0 no effect, 100 complete control
Method in brief: as §1

[10] = test system: johnsongrass (Sorghum halepense); conditions: for Plant response rating, Johnsongrass: scale 0 to 100, 0 no effect, 100 complete control
Method in brief: as §1

[11] = test system: foxtail, giant (giant foxtail, Setaria faberii); conditions: for Plant response rating, Foxtail, Giant: scale 0 to 100, 0 no effect, 100 complete control
Method in brief: as §1

[12] = test system: soybean (Glycine max); conditions: scale 0 to 100, 0 no effect, 100 complete control
Method in brief: as §1

[13] = test system: nutsedge, yellow (yellow nutsedge, Cyperus esculentus); conditions: for Plant response rating, Nutsedge, Yellow: scale 0 to 100, 0 no effect, 100 complete control
Method in brief: as §1

[14] = test system: lambsquarters (Chenopodium album); conditions: for Plant response rating, Lambsquarters: scale 0 to 100, 0 no effect, 100 complete control
Method in brief: as §1

[15] = test system: ryegrass, Italian (Italian ryegrass, Lolium multiflorum); conditions: for Plant response rating, Ryegrass, Italian: scale 0 to 100, 0 no effect, 100 complete control
Method in brief: as §1

[16] = test system: oilseed rape (Brassica napus); conditions: for Plant response rating, Oilseed Rape: scale 0 to 100, 0 no effect, 100 complete control
Method in brief: as §1

[17] = test system: waterhemp (common waterhemp, Amaranthus rudis); conditions: for Plant response rating, Waterhemp: scale 0 to 100, 0 no effect, 100 complete control
Method in brief: as §1

[18] = 31 g ai/ha, 0 is no effect, 100 is complete control

Compound: Cc1cccc(C2CN(C)C(=O)C2C(=O)Nc2cccc(F)c2F)c1 (stereo not drawn) [Compound 667]
- Plant response rating (scale of 0 to 100), Corn [1, 18]: 55
- Plant response rating, Corn ([1]; 62 g ai/ha): 70
- Plant response rating, Corn ([1]; 125 g ai/ha): 80
- Plant response rating, Corn ([1]; 250 g ai/ha): 85
- Plant response rating (scale of 0 to 100), Pigweed [2, 18]: 40
- Plant response rating, Pigweed ([2]; 62 g ai/ha): 50
- Plant response rating, Pigweed ([2]; 125 g ai/ha): 50
- Plant response rating, Pigweed ([2]; 250 g ai/ha): 70
- Plant response rating (scale of 0 to 100), Crabgrass, Large [3, 18]: 95
- Plant response rating, Crabgrass, Large ([3]; 62 g ai/ha): 95
- Plant response rating, Crabgrass, Large ([3]; 125 g ai/ha): 98
- Plant response rating, Crabgrass, Large ([3]; 250 g ai/ha): 98
- Plant response rating (scale of 0 to 100), Ragweed [4, 18]: 25
- Plant response rating, Ragweed ([4]; 62 g ai/ha): 100
- Plant response rating, Ragweed ([4]; 125 g ai/ha): 70
- Plant response rating, Ragweed ([4]; 250 g ai/ha): 80
- Plant response rating (scale of 0 to 100), Barnyardgrass [5, 18]: 95
- Plant response rating, Barnyardgrass ([5]; 62 g ai/ha): 95
- Plant response rating, Barnyardgrass ([5]; 125 g ai/ha): 98
- Plant response rating, Barnyardgrass ([5]; 250 g ai/ha): 100
- Plant response rating (scale of 0 to 100), Morningglory [6, 18]: 0
- Plant response rating, Morningglory ([6]; 62 g ai/ha): 0
- Plant response rating, Morningglory ([6]; 125 g ai/ha): 0
- Plant response rating, Morningglory ([6]; 250 g ai/ha): 10
- Plant response rating (scale of 0 to 100), Velvetleaf [7, 18]: 5
- Plant response rating, Velvetleaf ([7]; 62 g ai/ha): 30
- Plant response rating, Velvetleaf ([7]; 125 g ai/ha): 50
- Plant response rating, Velvetleaf ([7]; 250 g ai/ha): 40
- Plant response rating (scale of 0 to 100), Wheat [8, 18]: 0
- Plant response rating, Wheat ([8]; 62 g ai/ha): 10
- Plant response rating, Wheat ([8]; 125 g ai/ha): 55
- Plant response rating, Wheat ([8]; 250 g ai/ha): 50
- Plant response rating (scale of 0 to 100), Galium [9, 18]: 10
- Plant response rating, Galium ([9]; 62 g ai/ha): 100
- Plant response rating, Galium ([9]; 125 g ai/ha): 98
- Plant response rating, Galium ([9]; 250 g ai/ha): 90
- Plant response rating (scale of 0 to 100), Johnsongrass [10, 18]: 70
- Plant response rating, Johnsongrass ([10]; 62 g ai/ha): 80
- Plant response rating, Johnsongrass ([10]; 125 g ai/ha): 85
- Plant response rating, Johnsongrass ([10]; 250 g ai/ha): 90
- Plant response rating (scale of 0 to 100), Foxtail, Giant [11, 18]: 95
- Plant response rating, Foxtail, Giant ([11]; 62 g ai/ha): 98
- Plant response rating, Foxtail, Giant ([11]; 125 g ai/ha): 98
- Plant response rating, Foxtail, Giant ([11]; 250 g ai/ha): 100
- Plant response rating, Soybean ([12]; 62 g ai/ha): 10
- Plant response rating, Soybean ([12]; 125 g ai/ha): 0
- Plant response rating, Soybean ([12]; 250 g ai/ha): 0
- Plant response rating (scale of 0 to 100), Nutsedge, Yellow [13, 18]: 0
- Plant response rating, Nutsedge, Yellow ([13]; 62 g ai/ha): 0
- Plant response rating, Nutsedge, Yellow ([13]; 125 g ai/ha): 0
- Plant response rating, Nutsedge, Yellow ([13]; 250 g ai/ha): 25
- Plant response rating (scale of 0 to 100), Lambsquarters [14, 18]: 50
- Plant response rating, Lambsquarters ([14]; 62 g ai/ha): 70
- Plant response rating, Lambsquarters ([14]; 125 g ai/ha): 90
- Plant response rating, Lambsquarters ([14]; 250 g ai/ha): 100
- Plant response rating (scale of 0 to 100), Ryegrass, Italian [15, 18]: 60
- Plant response rating, Ryegrass, Italian ([15]; 62 g ai/ha): 70
- Plant response rating, Ryegrass, Italian ([15]; 125 g ai/ha): 95
- Plant response rating, Ryegrass, Italian ([15]; 250 g ai/ha): 98
- Plant response rating (scale of 0 to 100), Oilseed Rape [16, 18]: 35
- Plant response rating, Oilseed Rape ([16]; 62 g ai/ha): 85
- Plant response rating, Oilseed Rape ([16]; 125 g ai/ha): 85
- Plant response rating, Oilseed Rape ([16]; 250 g ai/ha): 90
- Plant response rating (scale of 0 to 100), Waterhemp [17, 18]: 0
- Plant response rating, Waterhemp ([17]; 62 g ai/ha): 10
- Plant response rating, Waterhemp ([17]; 125 g ai/ha): 60
- Plant response rating, Waterhemp ([17]; 250 g ai/ha): 75

Compound: Cc1ccc(C2CN(C)C(=O)C2C(=O)Nc2cccc(F)c2F)cc1F (stereo not drawn) [Compound 464]
- Plant response rating, Corn ([1]; 31 g ai/ha): 50
- Plant response rating, Corn ([1]; 62 g ai/ha): 70
- Plant response rating, Corn ([1]; 125 g ai/ha): 75
- Plant response rating, Corn ([1]; 250 g ai/ha): 90
- Plant response rating, Pigweed ([2]; 31 g ai/ha): 45
- Plant response rating, Pigweed ([2]; 62 g ai/ha): 45
- Plant response rating, Pigweed ([2]; 125 g ai/ha): 60
- Plant response rating, Pigweed ([2]; 250 g ai/ha): 70
- Plant response rating, Crabgrass, Large ([3]; 31 g ai/ha): 95
- Plant response rating, Crabgrass, Large ([3]; 62 g ai/ha): 100
- Plant response rating, Crabgrass, Large ([3]; 125 g ai/ha): 100
- Plant response rating, Crabgrass, Large ([3]; 250 g ai/ha): 100
- Plant response rating, Ragweed ([4]; 31 g ai/ha): 70
- Plant response rating, Ragweed ([4]; 62 g ai/ha): 70
- Plant response rating, Ragweed ([4]; 125 g ai/ha): 75
- Plant response rating, Ragweed ([4]; 250 g ai/ha): 90
- Plant response rating, Barnyardgrass ([5]; 31 g ai/ha): 90
- Plant response rating, Barnyardgrass ([5]; 62 g ai/ha): 95
- Plant response rating, Barnyardgrass ([5]; 125 g ai/ha): 95
- Plant response rating, Barnyardgrass ([5]; 250 g ai/ha): 98
- Plant response rating, Morningglory ([6]; 31 g ai/ha): 10
- Plant response rating, Morningglory ([6]; 62 g ai/ha): 20
- Plant response rating, Morningglory ([6]; 125 g ai/ha): 20
- Plant response rating, Morningglory ([6]; 250 g ai/ha): 40
- Plant response rating, Velvetleaf ([7]; 62 g ai/ha): 30
- Plant response rating, Velvetleaf ([7]; 125 g ai/ha): 45
- Plant response rating, Velvetleaf ([7]; 250 g ai/ha): 60
- Plant response rating, Wheat ([8]; 62 g ai/ha): 50
- Plant response rating, Wheat ([8]; 125 g ai/ha): 70
- Plant response rating, Wheat ([8]; 250 g ai/ha): 90
- Plant response rating, Galium ([9]; 31 g ai/ha): 90
- Plant response rating, Galium ([9]; 62 g ai/ha): 95
- Plant response rating, Galium ([9]; 125 g ai/ha): 95
- Plant response rating, Galium ([9]; 250 g ai/ha): 95
- Plant response rating, Johnsongrass ([10]; 31 g ai/ha): 35
- Plant response rating, Johnsongrass ([10]; 62 g ai/ha): 80
- Plant response rating, Johnsongrass ([10]; 125 g ai/ha): 85
- Plant response rating, Johnsongrass ([10]; 250 g ai/ha): 95
- Plant response rating, Soybean ([12]; 62 g ai/ha): 0
- Plant response rating, Soybean ([12]; 125 g ai/ha): 0
- Plant response rating, Soybean ([12]; 250 g ai/ha): 0
- Plant response rating, Nutsedge, Yellow ([13]; 31 g ai/ha): 0
- Plant response rating, Nutsedge, Yellow ([13]; 62 g ai/ha): 0
- Plant response rating, Nutsedge, Yellow ([13]; 125 g ai/ha): 0
- Plant response rating, Nutsedge, Yellow ([13]; 250 g ai/ha): 0
- Plant response rating, Lambsquarters ([14]; 31 g ai/ha): 45
- Plant response rating, Lambsquarters ([14]; 62 g ai/ha): 80
- Plant response rating, Lambsquarters ([14]; 125 g ai/ha): 80
- Plant response rating, Lambsquarters ([14]; 250 g ai/ha): 90
- Plant response rating, Ryegrass, Italian ([15]; 62 g ai/ha): 55
- Plant response rating, Ryegrass, Italian ([15]; 125 g ai/ha): 70
- Plant response rating, Ryegrass, Italian ([15]; 250 g ai/ha): 85
- Plant response rating, Oilseed Rape ([16]; 31 g ai/ha): 80
- Plant response rating, Oilseed Rape ([16]; 62 g ai/ha): 85
- Plant response rating, Oilseed Rape ([16]; 125 g ai/ha): 80
- Plant response rating, Oilseed Rape ([16]; 250 g ai/ha): 90
- Plant response rating, Waterhemp ([17]; 62 g ai/ha): 75
- Plant response rating, Waterhemp ([17]; 125 g ai/ha): 80
- Plant response rating, Waterhemp ([17]; 250 g ai/ha): 95
